This is an account of results in ChEMBL document CHEMBL4483862, “Open-source discovery of chemical leads for next-generation chemoprotective antimalarials” (2018).

The subject of the test is Plasmodium berghei. Put plainly: Luciferase/luciferin-expressing antifolate-resistant parasites were used to infect a culture of HepG2 cells that were pre-incubated with compounds. Infected hepatocytes emit light due to the luciferase reaction. Assay results are presented as the percent inhibition of light emission compared to control. […]. It counts as functional. The following applies: sporozoite; for IC90: read-out: LUCIFERASE INFECTION ASSAY - IC90.

With `CN(C)c1cc[n+](CC(=O)Nc2ccc(OC(F)F)cc2)cc1`, the IC90 is greater than 10 µM. In addition, where the note is “HEPG2TOX_HILL_SLOPE 2.17, HEPG2TOX_R_SQUARED 0.89, read-out: LUCIFERASE INFECTION ASSAY - IC50”, the IC50 was greater than 10 µM.
Turning to `CS(=O)(=O)c1ccc(CN2CCN3C(C(=O)Nc4ccc(F)c(Cl)c4)=COC3=NC2=O)cc1`, the IC90 is greater than 10 µM. Moreover, the IC50 (HEPG2TOX_HILL_SLOPE 2.2, HEPG2TOX_R_SQUARED 0.936, PBLUC_HILL_SLOPE 1.17, PBLUC_R_SQUARED 0.243, read-out: LUCIFERASE INFECTION ASSAY - IC50) was greater than 10 µM.
In the case of `CCCCOc1ccc(/C=C/C(=O)NNC(=O)Cc2nc3ccccc3n2C)cc1OCC`, the IC90 was determined as 9.1 µM. For the same molecule, where the note is “HEPG2TOX_HILL_SLOPE 2.18, HEPG2TOX_R_SQUARED 0.787, PBLUC_HILL_SLOPE 13.4, PBLUC_R_SQUARED 0.401, read-out: LUCIFERASE INFECTION ASSAY - IC50”, the IC50 worked out at 7.73 µM.
Turning to `COc1cc(-c2ccc3ncc(-c4cccc(C(C)=O)c4)n3n2)cc(OC)c1OC`, the IC90 amounted to 1.39 µM. The IC50 (HEPG2TOX_HILL_SLOPE 2.19, HEPG2TOX_R_SQUARED 0.885, PBLUC_HILL_SLOPE 9.54, PBLUC_R_SQUARED 0.57, read-out: LUCIFERASE INFECTION ASSAY - IC50) was determined as 1.11 µM.
With `Cc1ccccc1-c1cc2c(cn1)nc(NCc1ccccc1F)n2C`, the IC90 was determined as 8.53 µM. The IC50 (HEPG2TOX_HILL_SLOPE 2.16, HEPG2TOX_R_SQUARED 0.829, PBLUC_HILL_SLOPE 2.78, PBLUC_R_SQUARED 0.577, read-out: LUCIFERASE INFECTION ASSAY - IC50) was 3.87 µM.
On to `COc1ccc(N(CCCN2C(=O)c3cccc4cccc(c34)C2=O)C(=O)c2ccccc2Cl)cc1`, for which the IC90 came out at 0.656 µM. Besides, the IC50 (HEPG2TOX_HILL_SLOPE 2.18, HEPG2TOX_R_SQUARED 0.863, PBLUC_HILL_SLOPE 2.29, PBLUC_R_SQUARED 0.755, read-out: LUCIFERASE INFECTION ASSAY - IC50) was 0.251 µM.
`Cc1ccc(S(=O)(=O)N2CCSc3cc(Cl)ccc32)cc1`: the IC90 turned out to be 3.49 µM. Further, the IC50 (HEPG2TOX_HILL_SLOPE 2.16, HEPG2TOX_R_SQUARED 0.961, PBLUC_HILL_SLOPE 19.3, PBLUC_R_SQUARED 0.449, read-out: LUCIFERASE INFECTION ASSAY - IC50) was determined as 3.12 µM.
As for `COc1ccc(C2=NN=C/C2=N\Nc2ccccc2)cc1`, the IC90 turned out to be 3.89 µM. In addition, the IC50 (HEPG2TOX_HILL_SLOPE 2.19, HEPG2TOX_R_SQUARED 0.971, PBLUC_HILL_SLOPE 2.49, PBLUC_R_SQUARED 0.567, read-out: LUCIFERASE INFECTION ASSAY - IC50) turned out to be 1.61 µM.
For `CC(=O)O[C@H]1C[C@@H](O[C@@H]2C(C)O[C@H](O[C@@H]3C(C)O[C@@H](O[C@H]4CC[C@@]5(C)C(CCC6C5C[C@@H](O)[C@]5(C)[C@@H](C7=CC(=O)OC7)CC[C@]65O)C4)C[C@@H]3O)C[C@@H]2O)OC(C)[C@H]1O[C@@H]1O[C@H](CO)[C@@H](O)[C@H](O)[C@H]1O` (stereo partly specified), the IC90 is greater than 3.35 µM. Besides, the IC50 (HEPG2TOX_HILL_SLOPE 2.2, HEPG2TOX_R_SQUARED 0.634, PBLUC_HILL_SLOPE 2.28, PBLUC_R_SQUARED 0.618, read-out: LUCIFERASE INFECTION ASSAY - IC50) stood at 1.57 µM.
Turning to `N#CC(C(=O)c1ccc(Br)s1)c1nc2ccccc2s1` (stereo unspecified), the IC90 was 3.8 µM. Also, where the note is “HEPG2TOX_HILL_SLOPE 2.2, HEPG2TOX_R_SQUARED 0.729, PBLUC_HILL_SLOPE 11.3, 11.3, PBLUC_R_SQUARED 0.872, 0.879, read-out: LUCIFERASE INFECTION ASSAY - IC50”, the IC50 came out at 3.13 µM.
Take `Clc1ccc(-c2cnc3cnc(-c4cccnc4)cn23)cc1`: the IC90 amounted to 1.8 µM. The IC50 (HEPG2TOX_HILL_SLOPE 2.16, HEPG2TOX_R_SQUARED 0.901, PBLUC_HILL_SLOPE 2.19, PBLUC_R_SQUARED 0.923, read-out: LUCIFERASE INFECTION ASSAY - IC50) worked out at 0.659 µM.
Turning to `COc1ccccc1-c1cc(NC(C)=O)c2ncc(-c3cc(OC)c(OC)c(OC)c3)n2c1`, the concentration for an effect of 90% (IC90) was 2.96 µM. Besides, for the setting “HEPG2TOX_HILL_SLOPE 2.18, HEPG2TOX_R_SQUARED 0.547, PBLUC_HILL_SLOPE 12.3, PBLUC_R_SQUARED 0.226, read-out: LUCIFERASE INFECTION ASSAY - IC50”, the IC50 was 2.47 µM.
In the case of `COc1ccc(Br)cc1-c1nc(CN2C(=O)NC(C)(c3ccccc3)C2=O)cs1` (stereo unspecified), the IC90 was 5.61 µM. Besides, the IC50 (HEPG2TOX_HILL_SLOPE 2.19, HEPG2TOX_R_SQUARED 0.876, PBLUC_HILL_SLOPE 2.71, PBLUC_R_SQUARED 0.259, read-out: LUCIFERASE INFECTION ASSAY - IC50) amounted to 2.49 µM.
Take `COC(=O)c1ccc2[nH]c3c(c2c1)CN(c1ncnc2ccccc12)CC3`: the IC90 came out at 9.79 µM. Further, the IC50 (HEPG2TOX_HILL_SLOPE 2.18, 2.21, HEPG2TOX_R_SQUARED 0.310, 0.448, PBLUC_HILL_SLOPE 1.05, 1.29, PBLUC_R_SQUARED 0.612, 0.824, read-out: LUCIFERASE INFECTION ASSAY - IC50) was 1.63 µM.
Turning to `COc1cccc(-c2cc3c(Nc4cccc(C(C)C)c4)nccc3[nH]2)c1`, the IC90 is 2.26 µM. The IC50 (HEPG2TOX_HILL_SLOPE 2.2, HEPG2TOX_R_SQUARED 0.959, PBLUC_HILL_SLOPE 4.36, PBLUC_R_SQUARED 0.354, read-out: LUCIFERASE INFECTION ASSAY - IC50) is 1.36 µM.
On to `O=S(=O)(Nc1cc(F)c(Br)cc1F)c1cc(C(F)(F)F)cc(C(F)(F)F)c1`, for which the IC90 was greater than 6.82 µM. The IC50 (HEPG2TOX_HILL_SLOPE 2.19, HEPG2TOX_R_SQUARED 0.933, PBLUC_HILL_SLOPE 2.47, PBLUC_R_SQUARED 0.245, read-out: LUCIFERASE INFECTION ASSAY - IC50) is 2.98 µM.
Regarding `CCCNC(=O)c1csc(C(O)c2ccc(C(C)(C)C)cc2)n1` (stereo unspecified), the IC90 was greater than 10 µM. Besides, the IC50 (HEPG2TOX_HILL_SLOPE 2.18, HEPG2TOX_R_SQUARED 0.794, read-out: LUCIFERASE INFECTION ASSAY - IC50) is greater than 10 µM.
As for `Cc1ccc2nc(NC(=O)c3ccc(C#N)cc3)c(C(=O)NC3CCCCC3)n2c1`, the IC90 was greater than 8.22 µM. Where the note is “HEPG2TOX_HILL_SLOPE 2.19, HEPG2TOX_R_SQUARED 0.834, PBLUC_HILL_SLOPE 2.97, PBLUC_R_SQUARED 0.239, read-out: LUCIFERASE INFECTION ASSAY - IC50”, the IC50 came to 4.92 µM.
For the molecule `CC(C)c1nc2ccccc2n1Cc1cccc2ccccc12`, the IC90 turned out to be 4.17 µM. For the same molecule, the IC50 (HEPG2TOX_HILL_SLOPE 2.18, HEPG2TOX_R_SQUARED 0.953, PBLUC_HILL_SLOPE 14.4, PBLUC_R_SQUARED 0.432, read-out: LUCIFERASE INFECTION ASSAY - IC50) was found to be 3.58 µM.
For `COc1ccc(C2C(C(=O)OCc3cccc4ccccc34)CCC(=O)N2c2ccc(C)cc2)cc1OC` (stereo unspecified), the concentration for an effect of 90% (IC90) is greater than 10 µM. Also, the IC50 (HEPG2TOX_HILL_SLOPE 2.17, HEPG2TOX_R_SQUARED 0.745, PBLUC_HILL_SLOPE 19.2, PBLUC_R_SQUARED 0.577, read-out: LUCIFERASE INFECTION ASSAY - IC50) was 9.58 µM.
Turning to `COc1ccccc1CNc1ccnc2cc(Cl)ccc12`, the IC90 worked out at 3.82 µM. In addition, the IC50 (HEPG2TOX_HILL_SLOPE 2.2, HEPG2TOX_R_SQUARED 0.908, PBLUC_HILL_SLOPE 13.6, PBLUC_R_SQUARED 0.424, read-out: LUCIFERASE INFECTION ASSAY - IC50) came to 3.25 µM.
Consider `CCn1c(=O)c(C)nc2cc(C(=O)Nc3ccc(C(C)(C)C)cc3)ccc21`, for which the IC90 came out at 1.74 µM. Moreover, the IC50 (HEPG2TOX_HILL_SLOPE 2.17, HEPG2TOX_R_SQUARED 0.922, PBLUC_HILL_SLOPE 3.75, PBLUC_R_SQUARED 0.489, read-out: LUCIFERASE INFECTION ASSAY - IC50) was 0.966 µM.
For the molecule `c1ccc(-c2cn3ccnc3c(NCc3ccncc3)n2)cc1`, the IC90 turned out to be 4.49 µM. For the same molecule, the IC50 (HEPG2TOX_HILL_SLOPE 2.19, HEPG2TOX_R_SQUARED 0.99, PBLUC_HILL_SLOPE 12.4, PBLUC_R_SQUARED 0.482, read-out: LUCIFERASE INFECTION ASSAY - IC50) came to 3.76 µM.
For the molecule `COc1ccc(OC)c(CCNc2nc3cnc(-c4cncnc4)cc3n2C)c1`, the IC90 is greater than 10 µM. Also, for the setting “HEPG2TOX_HILL_SLOPE 2.17, HEPG2TOX_R_SQUARED 0.775, PBLUC_HILL_SLOPE 2.72, PBLUC_R_SQUARED 0.417, read-out: LUCIFERASE INFECTION ASSAY - IC50”, the half-inhibitory concentration (IC50) stood at 4.95 µM.
Turning to `c1csc(-c2cnc3ccc(-c4ccc5c(c4)OCO5)nn23)c1`, the IC90 was greater than 10 µM. The IC50 (HEPG2TOX_HILL_SLOPE 2.2, HEPG2TOX_R_SQUARED 0.859, PBLUC_HILL_SLOPE 2.18, PBLUC_R_SQUARED 0.249, read-out: LUCIFERASE INFECTION ASSAY - IC50) amounted to 4.56 µM.
On to `Cc1nnsc1C(=O)Nc1cccc(C(F)(F)F)c1`, for which the IC90 amounted to 10.6 µM. Further, the half-inhibitory concentration (IC50) (HEPG2TOX_HILL_SLOPE 2.18, HEPG2TOX_R_SQUARED 0.919, PBLUC_HILL_SLOPE 3.32, PBLUC_R_SQUARED 0.374, read-out: LUCIFERASE INFECTION ASSAY - IC50) worked out at 5.46 µM.
As to `CCN1C(=O)N(CC(N)=O)C(=O)C12CCN(Cc1ccc(N(C)c3ccccc3)cc1)CC2`, the IC90 is greater than 7.34 µM. In addition, the IC50 (HEPG2TOX_HILL_SLOPE 2.17, HEPG2TOX_R_SQUARED 0.96, PBLUC_HILL_SLOPE 2.1, PBLUC_R_SQUARED 0.458, read-out: LUCIFERASE INFECTION ASSAY - IC50) is 3.27 µM.
Regarding `C[C@]12CC[C@H](O)C[C@H]1CCC1C2CC[C@]2(C)[C@@H](C3=CC(=O)OC3)CC[C@]12O` (stereo partly specified), the IC90 turned out to be 0.225 µM. The IC50 (HEPG2TOX_HILL_SLOPE 2.19, HEPG2TOX_R_SQUARED 0.915, PBLUC_HILL_SLOPE 1.64, PBLUC_R_SQUARED 0.798, read-out: LUCIFERASE INFECTION ASSAY - IC50) worked out at 0.0591 µM.
